Data reported in ChEMBL document CHEMBL1201862, “PubChem BioAssay data set” (2004).
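The compound was tested at five concentrations on cells cultured in 96-well plates, with a 48-hour exposure period. The concentration for 50% growth inhibition is given as GI50.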 Active and inactive are the calls of the source. Rule as the data show it: active = GI50 up to about 1.1 µM and inactive = higher.

Experiments:
Assay in all cases: NCI tumour cell line growth inhibition, 48 h
[1] = system: 786-0
[2] = system: A498
[3] = system: ACHN
[4] = system: CAKI-1
[5] = system: HCT-116
[6] = system: HT-29
[7] = system: Hs-578T
[8] = system: M14
[9] = system: NCI-H226
[10] = system: NCI/ADR-RES
[11] = system: PC-3
[12] = system: RXF 393
[13] = system: SF-295
[14] = system: SF-539
[15] = system: SK-MEL-28
[16] = system: SK-MEL-2
[17] = system: SR
[18] = system: T47D
[19] = system: UACC-62

Measured: GI50

O=C1OC(c2ccc(O)c(-c3ccccc3)c2)(c2ccc(O)c(-c3ccccc3)c2)c2c(Cl)c(Cl)c(Cl)c(Cl)c21
inactive: [1] > 100 µM | [2] > 100 µM | [3] > 100 µM | [4] > 100 µM | [5] > 100 µM | [6] > 100 µM | [7] > 100 µM | [8] > 100 µM | [9] > 100 µM | [10] > 100 µM | [11] > 100 µM | [12] > 100 µM | [13] > 100 µM | [14] > 100 µM | [15] > 100 µM | [16] > 100 µM | [17] > 100 µM | [18] > 100 µM | [19] > 100 µM

CC(=O)O[C@@H](C1C[C@@H](C)[C@H]2[C@@](O)(O1)[C@H](O)[C@@]1(C)C3=CC[C@H]4C(C)(C)[C@@H](OC5OCC(O)C(O)C5O)CC[C@@]45C[C@@]35CC[C@]21C)C(C)(C)O (stereo partly specified)
inactive: [1] 26.1 µM | [2] 23.8 µM | [3] 20.8 µM | [4] 38.7 µM | [5] 18.1 µM | [6] 25.8 µM | [7] 30.1 µM | [8] 29.3 µM | [9] 20.6 µM | [10] 46.8 µM | [11] 21.7 µM | [12] 15.9 µM | [13] 21.1 µM | [14] 15.7 µM | [15] 23.2 µM | [16] 18.6 µM | [17] 14.7 µM | [18] 23.7 µM | [19] 18.5 µM

OCCN1CCN(c2nc(N3CCCC3)c3nc(Cl)c(NCc4ccccc4)nc3n2)CC1
inactive: [1] 1.95 µM | [2] 12.5 µM | [3] 7.8 µM | [4] 9.44 µM | [5] 5.6 µM | [6] 3.18 µM | [7] 8.61 µM | [8] 3.03 µM | [9] 17.6 µM | [10] 10.9 µM | [11] 9.27 µM | [12] 1.32 µM | [13] 5.53 µM | [14] 5.81 µM | [15] 4.09 µM | [16] 6.92 µM | [17] 2.54 µM | [18] 5.32 µM | [19] 4.65 µM

Cc1ccc2c(O)cc(-c3cccs3)nc2n1
inactive: [1] 15.1 µM | [2] > 54.8 µM | [3] 33 µM | [4] 15.4 µM | [5] 4.81 µM | [6] 16.2 µM | [7] 11.6 µM | [8] 6.59 µM | [9] 8.91 µM | [10] 2.9 µM | [11] 11 µM | [12] 18.1 µM | [13] 17 µM | [14] 8.49 µM | [15] 7.33 µM | [16] > 25.9 µM | [17] 2.05 µM | [18] 6.64 µM | [19] 9.04 µM
